# From ChEMBL document CHEMBL2424609, “In silico accounting of novel pyridazine analogues as h-PTP 1B inhibitors: pharmacophore modelling, atom-based 3D QSAR and docking studies” (Med Chem Res, 2013)
# Molecular target: T1, Tyrosine-protein phosphatase non-receptor type 1 (Homo sapiens, UniProt P18031)
# T1 sequence (P18031 whole entry): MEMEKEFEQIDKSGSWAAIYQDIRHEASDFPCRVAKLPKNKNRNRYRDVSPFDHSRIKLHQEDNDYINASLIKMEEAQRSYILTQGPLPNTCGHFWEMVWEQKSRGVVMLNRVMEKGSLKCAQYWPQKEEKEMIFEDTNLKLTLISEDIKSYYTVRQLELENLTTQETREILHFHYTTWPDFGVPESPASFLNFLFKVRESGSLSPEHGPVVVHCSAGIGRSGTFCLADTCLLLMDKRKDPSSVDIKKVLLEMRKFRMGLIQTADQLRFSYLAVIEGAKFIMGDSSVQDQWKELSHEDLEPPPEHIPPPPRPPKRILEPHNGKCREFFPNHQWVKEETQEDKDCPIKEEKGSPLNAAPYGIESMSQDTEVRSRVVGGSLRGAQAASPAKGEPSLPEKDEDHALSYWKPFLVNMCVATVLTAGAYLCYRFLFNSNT
# Test: Non-competitive reversible inhibition of human PTP1B
Structure (SMILES),IC50 (read-out: IC50),IC50 (read-out: pIC50 (converted))
CC1(C)C=C2C(=NN(c3ccc(F)cc3)C(N)=C2C#N)CO1,4.9 µM,4.9 µM
COC(=O)c1cccc(N2N=C3COC(C)(C)C=C3C(C#N)=C2N)c1,2.1 µM,2.1 µM
CC(C)c1ccccc1N1N=C2CSCC=C2C(C#N)=C1N,2 µM,2 µM
N#CC1=C(N)N(c2ccccc2)N=C2CSCC=C21,1.1 µM,1.1 µM
COc1ccc(N2N=C3CSCC=C3C(C#N)=C2N)cc1,1.3 µM,1.3 µM
CC1(C)C=C2C(=NN(c3ccccc3)C(N)=C2C#N)CO1,5.7 µM,5.7 µM
CC1(C)C=C2C(=NN(c3ccccc3Oc3ccccc3)C(N)=C2C#N)CO1,15.8 µM,15.8 µM
N#CC1=C(N)N(c2ccccc2)N=C2CCCC=C21,10.4 µM,10.4 µM
CCc1cccc(N2N=C3COC(C)(C)C=C3C(C#N)=C2N)c1,8.2 µM,8.2 µM
CC1(C)C=C2C(=NN(c3ccc(CCO)cc3)C(N)=C2C#N)CO1,2.9 µM,2.9 µM
N#CC1=C(N)N(c2ccccc2)N=C2COCC=C21,0.35 µM,0.35 µM
CCc1ccc(N2N=C3COC(C)(C)C=C3C(C#N)=C2N)cc1,2.8 µM,2.8 µM
CC1(C)C=C2C(=NN(c3cccc(C(F)(F)F)c3)C(N)=C2C#N)CO1,2.8 µM,2.8 µM
CC1(C)C=C2C(=NN(c3ccccc3[N+](=O)[O-])C(N)=C2C#N)CO1,17.5 µM,17.5 µM
CC1(C)C=C2C(=NN(c3ccccc3C(F)(F)F)C(N)=C2C#N)CO1,3.9 µM,3.9 µM
CC1(C)C=C2C(=NN(c3ccccc3CO)C(N)=C2C#N)CO1,11.1 µM,11.1 µM
CCOc1ccccc1N1N=C2COC(C)(C)C=C2C(C#N)=C1N,3.4 µM,3.4 µM
COc1cccc(N2N=C3COC(C)(C)C=C3C(C#N)=C2N)c1,3.6 µM,3.6 µM
CC1(C)C=C2C(=NN(c3ccc(Oc4ccccc4)cc3)C(N)=C2C#N)CO1,22.7 µM,22.7 µM

Structure (SMILES),IC50 (read-out: IC50),IC50 (read-out: pIC50 (converted))
N#CC1=C(N)N(c2ccccc2F)N=C2CSCC=C21,4.4 µM,4.4 µM
CC(=O)Nc1cccc(N2N=C3COC(C)(C)C=C3C(C#N)=C2N)c1,2.3 µM,2.3 µM
CCc1ccccc1N1N=C2COC(C)(C)C=C2C(C#N)=C1N,1.6 µM,1.6 µM
CCOc1ccc(N2N=C3COC(C)(C)C=C3C(C#N)=C2N)cc1,3.2 µM,3.2 µM
COc1ccccc1N1N=C2COC(C)(C)C=C2C(C#N)=C1N,6.2 µM,6.19 µM
CC1(C)C=C2C(=NN(c3cccc(Oc4ccccc4)c3)C(N)=C2C#N)CO1,3.9 µM,3.9 µM
CCCCc1ccc(N2N=C3COC(C)(C)C=C3C(C#N)=C2N)cc1,7 µM,7 µM
CC1(C)C=C2C(=NN(c3cccc(CO)c3)C(N)=C2C#N)CO1,2.4 µM,2.4 µM
CC1(C)C=C2C(=NN(c3ccc(CO)cc3)C(N)=C2C#N)CO1,1.7 µM,1.7 µM
CC(C)c1ccc(N2N=C3CSCC=C3C(C#N)=C2N)cc1,5.6 µM,5.6 µM
COc1ccc(N2N=C3COC(C)(C)C=C3C(C#N)=C2N)cc1,2.2 µM,2.2 µM
CCCCc1ccccc1N1N=C2COC(C)(C)C=C2C(C#N)=C1N,1.5 µM,1.5 µM
CC1(C)C=C2C(=NN(c3ccccc3N3CCOCC3)C(N)=C2C#N)CO1,2.9 µM,2.9 µM
CC1(C)C=C2C(=NN(c3ccccc3F)C(N)=C2C#N)CO1,2.4 µM,2.4 µM
CC1(C)C=C2C(=NN(c3cccc(F)c3)C(N)=C2C#N)CO1,4.5 µM,4.5 µM
CC(C)c1cccc(N2N=C3COC(C)(C)C=C3C(C#N)=C2N)c1,8.2 µM,8.2 µM
CC(=O)Nc1ccc(N2N=C3COC(C)(C)C=C3C(C#N)=C2N)cc1,6.1 µM,6.1 µM
N#CC1=C(N)N(c2ccc(F)cc2)N=C2CSCC=C21,2 µM,2 µM
